In patent US20150305334A1, “USE OF SUBSTITUTED 1-(ARYL ETHYNYL)-, 1-(HETEROARYL ETHYNYL)-, 1-(HETEROCYCLYL ETHYNYL)- AND 1-(CYCLOALKENYL ETHYNYL)-CYCLOHEXANOLS AS ACTIVE AGENTS AGAINST ABIOTIC PLANT STRESS” (BAYER CROPSCIENCE AG, priority 2012, published 2015):

What was measured:
Format in all cases: in vivo
[1] = system: Brassica napus; assay: Drought stress test on greenhouse crop plants, spray application, efficacy vs untreated stressed control (BRSNS); conditions: dosage 250 g/ha
Protocol: (§1) Seeds of monocotyledonous and dicotyledonous crop plants were laid out in sandy loam in wood-fiber pots, covered with soil or sand and cultivated in a greenhouse under good growth conditions. The test plants were treated at the early leaf stage (BBCH10-BBCH13). To assure uniform water supply before commencement of stress, the potted plants were supplied with water by dam irrigation prior to substance application. The compounds according to the invention, formulated in the form of wettable powders (WP), were sprayed onto the green parts of the plants as an aqueous suspension at an equivalent water application rate of 600 l/ha with addition of 0.2% wetting agent (e.g. agrotin). Substance application was followed immediately by stress treatment of the plants. For this purpose, the pots were transferred into plastic inserts in order to prevent them from subsequently drying out too quickly. […] After the recovery phase had ended, the intensities of damage were analyzed in visual comparison to untreated, unstressed controls of the same age. The intensity of damage was first recorded as a percentage (100%=plants have died, 0%=like control plants). […] EF: efficacy (%) DVus: damage value of the untreated, stressed control DVts: damage value of the plants treated with test compound In each trial, 3 pots per crop and dosage were treated and evaluated; the resulting efficacies are thus averages. […]

[2] = system: Triticum aestivum; assay: Drought stress test on greenhouse crop plants, spray application, efficacy vs untreated stressed control (TRZAS); conditions: dosage 25 g/ha
Protocol: as §1

[3] = system: Zea mays; assay: Drought stress test on greenhouse crop plants, spray application, efficacy vs untreated stressed control (ZEAMX); conditions: dosage 25 g/ha
Protocol: as §1

Row | Compound | EF (BRSNS) [1] | EF (TRZAS) [2] | EF (ZEAMX) [3]
1 | CC1CCCC(C)(C)C1(O)C#Cc1ccccc1C(=O)O (centres unmarked) [I.1-107, 2-[(1-Hydroxy-2,2,6-trimethylcyclohexyl)ethynyl]benzoic acid] | >5% | – | –
2 | COC(=O)c1ccccc1C#CC1(O)C(C)CCCC1(C)C (centres unmarked) [I.1-116, Methyl 2-[(1-hydroxy-2,2,6-trimethylcyclohexyl)ethynyl]benzoate] | >5% | >5% | >5%
3 | COC(=O)c1ccccc1C#CC1(O)C(C)CCCC1C (centres unmarked) [I.13-116, Methyl 2-[(1-hydroxy-2,6-dimethylcyclohexyl)ethynyl]benzoate] | – | – | >5%
